Values quoted from earlier work as cited in patent US20230080958A1, “METHODS OF TREATING PSEUDOBULBAR AFFECT AND OTHER EMOTIONAL DISTURBANCES” (Woolsey Pharmaceuticals, Inc., priority 2020, published 2023).

What was measured:
[1] = 1-hydroxy (M3) metabolite, in vivo (Shibuya 2001)
[2] = system: patients with sub-cortical vascular dementia

Compound	half-life [1]	emotional incontinence (compulsive laughing and/or crying) ([2]; Kamei publication and Japanese patent application 6-293643, three patients, no assessment or diagnosis of PBA)	wandering (primary outcome) ([2]; two patients with sub-cortical vascular dementia, open-label, no control group, concomitant medications (Kamei 1996))
O=S(=O)(c1cccc2c(O)nccc12)N1CCCNCC1 [M3]	about 8 hours		
O=S(=O)(c1cccc2cnccc12)N1CCCNCC1 [fasudil, hexahydro-1-(5-isoquinolinesulfonyl)-1H-1,4-diazepine]		improvements	mitigated wandering
